According to PubChem BioAssay AID2060349 (Molecular Pharmacology Branch, DTP, NCI, 2025):
Where “and” joins values, the source holds several entries; their conditions need not be identical. Equal values may be shown once.

Test system: 762968-020-R-J2-PDC spheroids viability
Test: Anticancer human tumor 762968-020-R-J2-PDC patient-derived colon carcinoma cell line growth inhibition [TAK]
Conditions: spheroids with HUVEC and MSC; for IC50: curve of first compound; for viability, T/C: stronger effect = lower value
In short: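 Tumor cells were grown as spheroids with HUVEC and hMSC (60:25:15) and treated with targeted agents combined with TAK-243 or ipatasertib. Drugs were tested in half-log steps down from near the clinical Cmax, or from 10 microM where Cmax was unknown.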

[1] = second compound 0.3 µM, first compound 0.0316 µM
[2] = second compound 0.3 µM, first compound 0.1 µM
[3] = second compound 0.3 µM, first compound 0.316 µM
[4] = second compound 0.3 µM, first compound 1 µM
[5] = second compound 0.3 µM, first compound 3.16 µM
[6] = second compound 0.3 µM, first compound 10 µM
[7] = second compound 0.949 µM, first compound 0.0316 µM
[8] = second compound 0.949 µM, first compound 0.1 µM
[9] = second compound 0.949 µM, first compound 0.316 µM
[10] = second compound 0.949 µM, first compound 1 µM
[11] = second compound 0.949 µM, first compound 3.16 µM
[12] = second compound 0.949 µM, first compound 10 µM
[13] = second compound 3 µM, first compound 0.0316 µM
[14] = second compound 3 µM, first compound 0.1 µM
[15] = second compound 3 µM, first compound 0.316 µM
[16] = second compound 3 µM, first compound 1 µM
[17] = second compound 3 µM, first compound 3.16 µM
[18] = second compound 3 µM, first compound 10 µM
[19] = second compound 9.49 µM, first compound 0.0316 µM
[20] = second compound 9.49 µM, first compound 0.1 µM
[21] = second compound 9.49 µM, first compound 0.316 µM
[22] = second compound 9.49 µM, first compound 1 µM
[23] = second compound 9.49 µM, first compound 3.16 µM
[24] = second compound 9.49 µM, first compound 10 µM
[25] = second compound 30 µM, first compound 0.0316 µM
[26] = second compound 30 µM, first compound 0.1 µM
[27] = second compound 30 µM, first compound 0.316 µM
[28] = second compound 30 µM, first compound 1 µM
[29] = second compound 30 µM, first compound 3.16 µM
[30] = second compound 30 µM, first compound 10 µM
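Further: spheroids exposed to drug for 7 days before readout.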
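Wherever viability, T/C is given: 100% = DMSO vehicle control wells.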

## Cc1nc(NC(=O)N2CCCC2C(N)=O)sc1-c1ccnc(C(C)(C)C(F)(F)F)c1 (stereo unspecified) + CC(C)NCC(C(=O)N1CCN(c2ncnc3c2C(C)CC3O)CC1)c1ccc(Cl)cc1
Second compound 0.3 µM
  IC50: > 10 µM
Second compound 0.949 µM
  IC50: > 10 µM
Second compound 3 µM
  IC50: > 10 µM
Second compound 9.49 µM
  IC50: > 10 µM
Second compound 30 µM
  IC50: > 10 µM
[1]
  viability, T/C: 119%
[2]
  viability, T/C: 109%
[3]
  viability, T/C: 99.4%
[4]
  viability, T/C: 92.5%
[5]
  viability, T/C: 98.8%
[6]
  viability, T/C: 89.7%
[7]
  viability, T/C: 113%
[8]
  viability, T/C: 111%
[9]
  viability, T/C: 97.2%
[10]
  viability, T/C: 102%
[11]
  viability, T/C: 99.5%
[12]
  viability, T/C: 94.6%
[13]
  viability, T/C: 108%
[14]
  viability, T/C: 109%
[15]
  viability, T/C: 108%
[16]
  viability, T/C: 102%
[17]
  viability, T/C: 94.4%
[18]
  viability, T/C: 99.7%
[19]
  viability, T/C: 110%
[20]
  viability, T/C: 108%
[21]
  viability, T/C: 105%
[22]
  viability, T/C: 106%
[23]
  viability, T/C: 94%
[24]
  viability, T/C: 89.6%
[25]
  viability, T/C: 78.6%
[26]
  viability, T/C: 81.5%
[27]
  viability, T/C: 81.8%
[28]
  viability, T/C: 75.7%
[29]
  viability, T/C: 74.3%
[30]
  viability, T/C: 69.8%

## COc1c(OCCCN2CCOCC2)ccc2c3n(c(=NC(=O)c4cnc(N)nc4)nc12)CCN3
Compound 0.00316 µM
  viability, T/C: 101% and 102%
Compound 0.01 µM
  viability, T/C: 95.3% and 72%
Compound 0.0316 µM
  viability, T/C: 93% and 53.6%
Compound 0.1 µM
  viability, T/C: 80.6% and 42.5%
Compound 0.316 µM
  viability, T/C: 76.2% and 50.6%
Compound 1 µM
  viability, T/C: 73.9% and 52.4%

## CC(C)(C)c1nc(-c2cccc(NS(=O)(=O)c3c(F)cccc3F)c2F)c(-c2ccnc(N)n2)s1 + CC(C)NCC(C(=O)N1CCN(c2ncnc3c2C(C)CC3O)CC1)c1ccc(Cl)cc1
Second compound 0.3 µM
  IC50: > 10 µM
Second compound 0.949 µM
  IC50: > 10 µM
Second compound 3 µM
  IC50: > 10 µM
Second compound 9.49 µM
  IC50: > 10 µM
Second compound 30 µM
  IC50: > 10 µM
[1]
  viability, T/C: 92.8%
[2]
  viability, T/C: 91.4%
[3]
  viability, T/C: 84.8%
[4]
  viability, T/C: 84.3%
[5]
  viability, T/C: 92.4%
[6]
  viability, T/C: 94.7%
[7]
  viability, T/C: 93.9%
[8]
  viability, T/C: 90.2%
[9]
  viability, T/C: 84.6%
[10]
  viability, T/C: 86%
[11]
  viability, T/C: 88.4%
[12]
  viability, T/C: 92.8%
[13]
  viability, T/C: 95.6%
[14]
  viability, T/C: 87.1%
[15]
  viability, T/C: 94.8%
[16]
  viability, T/C: 85.9%
[17]
  viability, T/C: 92%
[18]
  viability, T/C: 95%
[19]
  viability, T/C: 92.5%
[20]
  viability, T/C: 86.4%
[21]
  viability, T/C: 83.9%
[22]
  viability, T/C: 79.9%
[23]
  viability, T/C: 72%
[24]
  viability, T/C: 92.5%
[25]
  viability, T/C: 81.4%
[26]
  viability, T/C: 80.5%
[27]
  viability, T/C: 81.6%
[28]
  viability, T/C: 74.1%
[29]
  viability, T/C: 74.5%
[30]
  viability, T/C: 93.5%
